Records with an inconclusive call do not appear. Calls of active or inactive are those of the source.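 How the source made its calls: active means falling-signal curve with half-maximal concentration at or below ten times the top tested dose; inconclusive means flat fit at 30 to 70% inhibition, or poor fit; inactive means signal rise, flat within 30%, or potency beyond limit.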

The experiment concerns NIH3T3 R4 HSE-GFP/Tet-RFP reporter, fluorescence, 48 h. Description: dox-induced RFP signal loss in R4-3T3 cells – cell-based, NIH3T3 R4, HSE-GFP and Tet-On RFP, cherry-pick, set 3, dose response (AID 493085).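 Further: cells heat shocked 2 h at 42 °C with doxycycline to induce reporters.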

The AC50 is the midpoint of the concentration-response curve, whichever way the signal moves. In the case of `COc1cc2c(cc1OC)C(c1ccc(-c3ccc(Cl)c(Cl)c3)o1)=NCC2`, the AC50 is 18.8 µM.

With `Cn1c(-c2nonc2N)nc2ccccc21`, the AC50 was > 19.5 µM (inactive).

With `CC1=NNC(=O)/C1=C\c1cn(-c2ccccc2)nc1-c1ccc(Cl)cc1`, the AC50 is 17.4 µM.

In the case of `Cc1ccc(OCC(=O)c2cc(C)n(-c3ccccc3)c2C)c([N+](=O)[O-])n1`, the AC50 is 8.65 µM.

For `COc1ccccc1-c1cc(C(F)(F)F)nc(S(=O)(=O)CCCC(=O)NCc2ccc(F)cc2)n1`, the AC50 was 5.34 µM.

Take `CCCCCCc1cc2cc(S(=O)(=O)c3ccc(F)c(Cl)c3)c(=O)oc2cc1O`: the AC50 was 1.52 µM.

On to `Cc1ccc(NC2=C/C(=N\S(=O)(=O)c3cccs3)c3ccccc3C2=O)c(C)c1`, for which the concentration at half-maximal activity (AC50) is 1.51 µM.

On to `COc1ccc(OC)c2c1C(=O)C(Cl)=C(Cl)C2=O`, for which the concentration at half-maximal activity (AC50) was 2.29 µM.

For `O=C(CCl)Nc1cc(SCC(O)CO)cc([N+](=O)[O-])c1` (stereo unspecified), the half-maximal activity concentration (AC50) was 13.7 µM.

As to `CCc1ccc(C(=O)Cn2ncc(Cl)c(Cl)c2=O)cc1`, the AC50 is 18.6 µM.

On to `CCc1cc(C)cc(OCCNC(=O)c2cncc(Br)c2)c1`, for which the AC50 was > 19.5 µM (inactive).

Turning to `CC1(C)CC(NC(=O)COc2ccccc2Cl)CC(C)(C)N1`, the AC50 was > 19.5 µM (inactive).

`Cc1[nH]c2ccccc2c1/C=C/c1nc2ccccc2c(=O)n1-c1cccc([N+](=O)[O-])c1`: the AC50 is > 19.5 µM (inactive).

In the case of `COc1cccc(CN(C)CC(=O)Nc2cccc(C(F)(F)F)c2)c1OC`, the AC50 was 18.8 µM.

As for `O=C(NCc1ccc2c(c1)OCO2)c1nc(S(=O)(=O)Cc2ccccc2)ncc1Cl`, the AC50 was 16.1 µM.

On to `CCS(=O)(=O)c1ncc(Cl)c(C(=O)Nc2ccc(S(=O)(=O)N3CCC(C)CC3)cc2)n1`, for which the AC50 is 16.2 µM.

On to `COC(=O)/C(=C1/Oc2cc(C)oc(=O)c2S1)C(F)(F)F`, for which the AC50 was 1.5 µM.

Turning to `Fc1ccc(-n2cc(-c3ccccc3)c3c(N4CCOCC4)ncnc32)cc1`, the AC50 is 6.34 µM.

On to `O=C(CCl)Nc1cn(-c2ccccc2)nc1-c1ccc(F)cc1`, for which the AC50 is 5.82 µM.

Consider `COc1ccc(C)cc1NS(=O)(=O)c1ccc(-c2cnc(C3CC3)o2)cc1`, for which the AC50 is 2.11 µM.

As for `COc1ccc(CN2CCC(C(=O)Nc3ccc(Oc4cccnc4)cc3)CC2)c(C)c1C`, the concentration at half-maximal activity (AC50) was 17.2 µM.

On to `CCn1c(SCC(=O)Nc2oc(C)c3c(C)n[nH]c(=O)c23)nc2sc(C)c(C)c2c1=O`, for which the AC50 is > 19.5 µM (inactive).

For the compound `Nc1nc(F)nc2c1ncn2[C@@H]1O[C@H](CO)[C@@H](O)[C@H]1O`, the AC50 is 0.981 µM.

Turning to `O=c1c2ccc(Cl)cc2nc(-c2cccc(C(F)(F)F)c2)n1O`, the AC50 was 18.2 µM.

Consider `CN=c1scc(-c2ccco2)n1/N=C/c1ccc(O)c(O)c1`, for which the concentration at half-maximal activity (AC50) was 3.01 µM.

Consider `NC(=O)c1sc2nc3c(c(-c4cccs4)c2c1N)CCCCC3`, for which the AC50 is 0.404 µM.

Consider `c1ccc2c(c1)OCC(c1csc3ncnc(N4CCOCC4)c13)O2` (stereo unspecified), for which the half-maximal activity concentration (AC50) was 16.6 µM.

For the compound `CCOC(=O)COc1ccccc1/C=C\[N+](=O)[O-]`, the AC50 is 5.63 µM.

With `CC1CC(C)CN(C(=O)c2ccc(CSc3nc4ccncc4[nH]3)cc2)C1` (stereo unspecified), the AC50 is 13.3 µM.

`Cc1ccc(C)c(NC(=O)CCc2nnc3ccc(NCc4ccco4)nn23)c1`: the AC50 was > 19.5 µM (inactive).

For the compound `CCOC(=O)c1c(C)[nH]c2c1-c1ccccc1C(=O)C2=O`, the AC50 was 1.07 µM.

In the case of `CC(C)(C)c1nn(-c2ccccc2)c2[nH]c(=O)c(CNc3ccc4c(c3)OCCO4)cc12`, the AC50 is > 19.5 µM (inactive).

Take `O=c1cc(-c2ccccc2)c2ccc(O)cc2o1`: the AC50 was > 19.5 µM (inactive).

For `Cc1cc(C)c(NC(=O)CSc2nncn2-c2cccnc2)c(C)c1`, the AC50 is > 19.5 µM (inactive).

On to `CCOc1cc(C(=S)N2CCOCC2)ccc1OS(=O)(=O)c1ccc(OC)cc1`, for which the concentration at half-maximal activity (AC50) is 16.1 µM.

For the compound `Cc1nn(C(C)(C)C)c(C)c1/C=N/OC(=O)Nc1ccc(Cl)c(Cl)c1`, the AC50 was > 19.5 µM (inactive).

Consider `CCCCCn1c(=O)c(C(=O)Nc2ccccn2)c(O)c2ccccc21`, for which the AC50 is 1.4 µM.

`Cc1ccc(S(=O)(=O)N2CCN(CC(=O)N/N=C\c3ccncc3)CC2)cc1`: the AC50 is > 19.5 µM (inactive).

For `CCCCn1c(=O)[nH]c(=O)c2c1nc(Cn1ncc(Cl)c(Cl)c1=O)n2CCC`, the AC50 was 18.2 µM.

Take `Cc1sc2ncnc(NCCc3ccc(S(N)(=O)=O)cc3)c2c1C`: the AC50 is 0.185 µM.

As for `Cc1cc(C)c2nc(C(F)(F)F)c(C#N)c(N)c2c1`, the concentration at half-maximal activity (AC50) was 1.54 µM.

With `CN1C(C(=O)Nc2ccc(OC(F)(F)F)cc2)=CC(c2cccs2)=NS1(=O)=O`, the AC50 was 17.7 µM.

In the case of `COc1ccccc1NC(=O)c1nc(S(=O)(=O)Cc2ccccc2)ncc1Cl`, the AC50 is 4.02 µM.

Consider `O=C1C(Cl)=C(Nc2ccc3cn[nH]c3c2)C(=O)c2ccccc21`, for which the half-maximal activity concentration (AC50) was 5.26 µM.

Regarding `NNC(=O)c1ccc(N2CCc3ccccc32)c([N+](=O)[O-])c1`, the AC50 was > 19.5 µM (inactive).

Turning to `CCOc1ccc(NCC(=O)c2ccc(C)cc2)cc1`, the AC50 was 12.7 µM.

As for `O=S(=O)(Nc1cccc(Oc2cnccn2)c1)c1ccc(F)cc1`, the AC50 was > 19.5 µM (inactive).

As for `CC1CCCCN1CC(=O)Nc1ccccc1Sc1ccccc1` (stereo unspecified), the AC50 was 15.1 µM.

Take `COc1ccc(S(=O)(=O)N2CCCCCC2)cc1C(=O)OCC(=O)NC(C)(C)C`: the AC50 is > 19.5 µM (inactive).

Turning to `CN=C1S/C(=C\c2cc(C)n(-c3ccccc3F)c2C)C(=O)N1C`, the AC50 is 16.5 µM.

`CCOc1ccc(-n2c(C)c(C(C)=O)c3cc(OC(C)=O)ccc32)cc1`: the AC50 is 2.24 µM.

As to `CC1=C(C(=O)OCc2ccc3c(c2)OCO3)C(c2ccc(F)cc2)NC(=O)N1` (stereo unspecified), the AC50 was 0.27 µM.

Regarding `Cn1c(=O)c([N+](=O)[O-])c(Cl)c2ccccc21`, the AC50 is 11.4 µM.

With `O=C1C(Nc2ccccc2)=C/C(=N/S(=O)(=O)c2cccs2)c2ccccc21`, the AC50 is 9.58 µM.

On to `Cc1cc([N+](=O)[O-])c2ccccc2[n+]1[O-]`, for which the AC50 is 15.6 µM.

For `COc1ccc(C(=O)c2c(C(F)(F)F)oc3c2C(=O)c2ccccc2C3=O)cc1`, the AC50 is 2.89 µM.

On to `COc1ccc2c(c1)c(CC(=O)Nc1nnc(C3CC3)s1)c(C)n2C(=O)c1ccc(Cl)cc1`, for which the AC50 was 0.284 µM.

Turning to `Cc1cc(Nc2ccc3c(c2)OCCO3)c2cc(Cl)ccc2n1`, the AC50 is > 19.5 µM (inactive).

As to `CCOC(=O)Cc1nnc2c(Nc3ccccc3F)nc3nonc3n12`, the AC50 is 2.32 µM.

`Cc1ccc(-c2cn(-c3ccccc3)c(=S)[nH]2)cc1C`: the AC50 is > 19.5 µM (inactive).

As to `COc1ccccc1N(C)S(=O)(=O)c1ccc(C(=O)NC(C)c2ccccc2)cc1` (stereo unspecified), the AC50 is > 19.5 µM (inactive).

Regarding `O=C(CCCCCn1c(=S)[nH]c2cc3c(cc2c1=O)OCO3)N1CCN(C(=O)c2ccco2)CC1`, the AC50 is > 19.5 µM (inactive).

Consider `CCN(CC)c1ncnc2ccc(Br)cc12`, for which the AC50 was 19.9 µM.

As to `OCCCNc1nccc(-c2cc(Nc3cccc(Cl)c3)ncn2)n1`, the AC50 is 0.354 µM.

As for `CCOC(=O)c1sc(NC(=O)CSc2n[nH]c(-c3ccccc3)n2)c(C#N)c1C`, the AC50 is 14.6 µM.

Turning to `COC(=O)c1c(N2C(=O)[C@H]3[C@@H](C2=O)[C@]2(C(=O)Nc4c(C)cccc42)N2CCC[C@@H]32)sc(C)c1C`, the AC50 was > 19.5 µM (inactive).

The record behind these values is PubChem BioAssay AID493085 (Broad Institute, 2011).
